Data on four compounds can be found in patent publication US20250221991A1, “COMBINATION THERAPY FOR THE TREATMENT OF CANCER METASTASES” (University of Cincinnati, priority 2024, published 2025).

Assay [1] deals with PANC-1 cells. Nature of the assay: Soft agar colony formation, PANC-1. The assay is classed as cell-based, human. The protocol:
(§1) The capability of cells to grow under anchorage-independent conditions is a hallmark of transformation and correlates with tumor progression in vivo. The assay was performed in a 60-mm dish with a bottom layer of 2 mL 0.5% agar (Noble Agar, Sigma) in the culture medium that is designated to the cells. The bottom agar was allowed to be solidified in the biosafety cabinet. Cells were suspended in 0.2% agar for PANC-1 cells, MIA PaCa-2 cells, and B16-F10 cells, but in 0.15% agar for MDA-MB-231 cells and 4T1 cells and then plated (1×10^5 cells/2 mL/dish) on top of the bottom layer. 400 μL culture medium with or without the indicated doses of drug treatment was added to cover the top agar layer every other day over 2 weeks for PANC-1, MIA PaCa-2 cells and over 3 weeks for MDA-MB-231 cells, respectively. The colonies in five microscopic fields (top, bottom, left, right and center) of each dish were photographed. […] Each treatment was repeated thrice.

The subject of assay [2] is PANC-1 cells. Nature of the assay: Deadherent survival (WST-1, poly-HEMA vs plastic), PANC-1. The assay is classed as cell-based, human. The protocol: (§2) Cells were seeded at a density of 10^4 cells/well in 96-well plates, either uncoated or in poly(2-hydroxyethyl methacrylate) (poly-HEMA) coated wells (3 mg of poly-HEMA in 50 μL 95% ethanol, let dry overnight, then washed twice with PBS, followed by one wash with medium before initiation of the experiment). Drugs were added in triplicates at the indicated concentrations for an incubation time of 48 h. At the 48-h time point, the indicator WST-1 was added to each well at 10% v/v final concentration. At the 60-, 80-, and 120-minute time points, the absorbance was measured at 450 nm using a MRX-TC Revelation plate reader.

Assay [3] relates to MDA-MB-231 cells. Nature of the assay: Deadherent survival (WST-1, poly-HEMA vs plastic), MDA-MB-231. The assay is classed as cell-based. To be noted: for concentration range of significant growth inhibition on poly-HEMA: deadherent cells. The protocol: as §2
(Tetrazolium assays rely on reduction of a dye to a coloured formazan, in cell work by metabolically active cells.)

Assay [4] relates to MIA PaCa-2 cells. The experiment in a line: Soft agar colony formation, MIA PaCa-2. The assay is classed as cell-based, human. The protocol: as §1
Assay [5] concerns MIA PaCa-2 cells. Nature of the assay: Deadherent survival (WST-1, poly-HEMA vs plastic), MIA PaCa-2. The assay is classed as cell-based, human. The protocol: as §2
In assay [6] the test system is MDA-MB-231 cells. The experiment in a line: Soft agar colony formation, MDA-MB-231. The assay is classed as cell-based. The protocol:
as §1

The mark [7] stands for this setting: same concentration range that completely suppressed soft agar colony formation.

The structures appear in SMILES notation. Where “and” joins values, the source holds several entries; their conditions need not be identical. Equal entries are not always repeated. Where only a bound is given, the exact number is not on record here.

In the case of `C[S+](C)[O-]` [DMSO, dimethyl sulfoxide], the “soft agar colony frequency” value in the assay with PANC-1 cells [1] (0.125%-0.25% (v/v)) and in the assay on MIA PaCa-2 cells [4] (0.125%-0.25% (v/v)) was “without impacting” each time. Also, the “effect on growth when plated on plastic or on poly-HEMA” value in the assay on PANC-1 cells [2] (setting [7]), in the assay on MDA-MB-231 cells [3] (setting [7]) and with MIA PaCa-2 cells [5] (setting [7]) was “no effect” each time.
For `[NH4+].[NH4+].[SH-].[SH-].[S]=[Mo]=[S]` [ammonium tetrathiomolybdate], the “inhibition of soft agar colony size” value in the assay with MDA-MB-231 cells [6] (0.5 μg/mL) was found to be 43%; in the assay on MDA-MB-231 cells [6] (1 μg/mL), 75%; in the assay with MDA-MB-231 cells [6] (2 μg/mL), 93%; in the assay with MDA-MB-231 cells [6] (4 μg/mL) it was 94%.
For `CCCCNc1cc(C(=O)O)cc(S(N)(=O)=O)c1Oc1ccccc1` [bumetanide], in the assay on MDA-MB-231 cells [3] (48 h, WST-1), the “concentration suppressing both adherent and deadherent cells” value is reported as “above 50 μg/mL”; the “concentration range of significant growth inhibition on poly-HEMA” value lay in the range of 15 to 35 µg/mL. Besides, the “effect on the same cells in the adherent (plated) state” value with MDA-MB-231 cells [3] (in the concentration range that significantly inhibits cells on poly-HEMA) was “without affecting”. For the same compound, in the assay with MIA PaCa-2 cells [5] (deadherent cells), the “concentration range suppressing proliferation on poly-HEMA” value was in the range of 1 to 5 µg/mL.
For `Cc1ccc(Nc2nccc(N(C)c3ccc4c(C)n(C)nc4c3)n2)cc1S(N)(=O)=O` [pazopanib], the “concentration at which inhibition of soft agar colony formation reaches significance” value was 0.25 μM and 0.12 μg/mL in the assay on PANC-1 cells [1]; 0.5 μM and 0.24 μg/mL in the assay on MDA-MB-231 cells [6]. The “concentration inhibiting growth under both conditions (adherent and deadherent)” value with PANC-1 cells [2] (48 h) is “Above 2 μg/mL”. Moreover, the “concentration range increasing adherent cell growth” value with PANC-1 cells [2] (adherent cells, 48 h) was 0.4 to 2 µg/mL. In addition, the “starting concentration significantly decreasing growth of deadherent cells” value with PANC-1 cells [2] (poly-HEMA, 48 h) is no less than 0.2 µg/mL. The “concentration range of significant growth inhibition on poly-HEMA” value in the assay on MDA-MB-231 cells [3] (48 h, WST-1) was in the range of 0.4 to 2.0 µg/mL. The “concentration inhibiting soft agar colony formation” value in the assay with MIA PaCa-2 cells [4] was 2.1 μM and 1 μg/mL.
